These results are taken from patent US4687775A, “2-[(Imidazo[1,2-a]pyridinylmethyl)sulfinyl]-1H-benzimidazoles” (G. D. Searle & Co., priority 1986, dated 1987).

The first test deals with T1, (H^+ +K^+)-ATPase (Canis lupus familiaris, UniProt P50996).
T1 construct: (H^+ +K^+)-ATPase obtained from canine gastric mucosa; from tissue; host or cells: glandular gastric mucosa of mongrel dogs (antral and cardiac regions removed), microsomes from the 15%-30% sucrose interface, lyophilized
T1 sequence (P50996 2-1034 limits assumed): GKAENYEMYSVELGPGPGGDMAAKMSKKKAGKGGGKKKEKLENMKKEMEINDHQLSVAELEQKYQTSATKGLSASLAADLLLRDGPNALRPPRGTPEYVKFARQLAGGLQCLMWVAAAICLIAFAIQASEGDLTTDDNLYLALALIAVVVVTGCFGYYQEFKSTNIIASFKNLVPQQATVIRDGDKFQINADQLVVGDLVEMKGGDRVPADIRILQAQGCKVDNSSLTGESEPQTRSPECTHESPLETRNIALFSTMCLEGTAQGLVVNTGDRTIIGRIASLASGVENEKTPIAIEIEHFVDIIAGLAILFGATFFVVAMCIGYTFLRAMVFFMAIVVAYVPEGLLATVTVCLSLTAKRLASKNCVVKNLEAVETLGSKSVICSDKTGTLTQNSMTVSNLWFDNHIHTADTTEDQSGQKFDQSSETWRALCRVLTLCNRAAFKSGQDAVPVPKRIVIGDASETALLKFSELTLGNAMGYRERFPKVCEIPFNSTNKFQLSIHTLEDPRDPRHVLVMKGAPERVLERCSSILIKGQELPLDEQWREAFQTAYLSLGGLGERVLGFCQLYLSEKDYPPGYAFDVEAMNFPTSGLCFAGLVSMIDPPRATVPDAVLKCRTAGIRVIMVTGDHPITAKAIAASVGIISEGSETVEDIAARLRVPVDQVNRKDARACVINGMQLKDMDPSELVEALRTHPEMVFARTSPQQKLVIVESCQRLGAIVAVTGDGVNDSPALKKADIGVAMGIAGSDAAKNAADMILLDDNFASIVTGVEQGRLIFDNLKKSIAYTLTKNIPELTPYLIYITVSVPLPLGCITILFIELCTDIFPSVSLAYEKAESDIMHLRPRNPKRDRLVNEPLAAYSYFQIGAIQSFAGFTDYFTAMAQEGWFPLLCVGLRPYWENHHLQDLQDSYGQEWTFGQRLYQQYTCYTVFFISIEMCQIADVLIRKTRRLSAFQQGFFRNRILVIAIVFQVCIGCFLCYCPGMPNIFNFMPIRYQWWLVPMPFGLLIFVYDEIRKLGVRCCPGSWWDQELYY
T1 sequence (P33704 whole entry partner): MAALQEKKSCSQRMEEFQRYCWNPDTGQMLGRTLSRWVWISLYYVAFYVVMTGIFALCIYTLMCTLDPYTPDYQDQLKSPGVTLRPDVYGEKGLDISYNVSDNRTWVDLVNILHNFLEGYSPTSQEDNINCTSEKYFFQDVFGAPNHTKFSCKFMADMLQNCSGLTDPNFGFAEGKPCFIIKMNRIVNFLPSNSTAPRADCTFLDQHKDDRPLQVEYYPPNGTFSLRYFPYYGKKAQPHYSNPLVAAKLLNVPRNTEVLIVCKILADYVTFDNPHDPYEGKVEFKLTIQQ
The test is described as follows: Inhibition of (H^+ +K^+)-ATPase from Canine Gastric Mucosa. The format is biochemical, canine (mongrel dogs). The note with it: canine gastric mucosa microsomes; pH 6.0; 30 min preincubation with compound at 37°; K^+-stimulated minus basal activity. Here is the method: Inhibition of (H^+ +K^+)-ATPase from Canine Gastric Mucosa
Mongrel dogs weighing 15 to 25 kilograms were fasted for twenty-four hours, with water provided ad libitum. The animals were anesthetized with pentobarbital and the stomachs were removed. Subsequent tissue manipulations and subcellular fractionations were performed at 0° to 4° C. After the stomachs were cut open and rinsed with tap water, the antral and cardiac regions were removed and the remaining tissue was rinsed three times in saline. The glandular mucosa was removed mechanically, chopped finely in a medium containing 10 mM Tris hydrochloride (pH 7.4) and 250 mM sucrose, and homogenized. The homogenate was centrifuged at 20,000×g for twenty minutes and the pellet discarded. The supernatant was then centrifuged at 150,000×g for ninety minutes and the supernatant discarded. The pellet was resuspended in the Tris-HCl/sucrose medium by homogenization. Part (2 ml) of the resultant microsomal suspension was layered onto a step gradient consisting of 9 ml of 15% sucrose above 12 ml of 30% sucrose, each sucrose solution being buffered with 10 mM Tris hydrochloride (pH 7.4) containing 0.01% sodium azide. The microsomes retained at the 15%-30% sucrose interface, after centrifugation at 250,000×g for sixty minutes, were used as the source of (H^+ +K^+)-ATPase. Microsomal preparations were lyophilized, a process that assured potassium ion permiability, and stored at -10° until used.
(H^+ K^+)-ATPase activity for each test compound was determined, in duplicate, by measuring the release of inorganic phosphate, which was assayed according to the method of J. ChandraRajan and L. Klein. Anal. Biochem., 72, 407-412 (1976). The (H^+ +K^+)-ATPase assay medium consisted of 20 mM Mes-Tris (pH 6.0), 5 mM magnesium chloride, 25 mM sucrose, and 4 mM Tris-ATP with or without 20 mM potassium chloride in a total volume of 2 ml. Microsomal suspensions (20 to 60 mcl, containing about 25 mcg protein) were added to the assay medium, without Tris-ATP, and then preincubated with a test compound for thirty minutes at 37°. The assay was initiated by adding Tris-ATP and the mixture was incubated another thirty minutes at 37°. A 200-mcl aliquot of the assay mixture was then added to 1.4 ml of a solution consisting of 0.1M sodium acetate (pH 4.0) and 10 % sodium dodecylsulfate, followed by the addition of 200 mcl each of 1% ammonium molybdate and 1% ascorbic acid. At least fifteen minutes later, the optical absorbance at 870 nm (which was proportional to inorganic phosphate concentration up to 100 nmoles per tube, as determined by a standard curve) was obtained. Enzyme activity was linear with incubation time.
(H^+ +K^+)-ATPase activity is represented by the difference between the measured activities in the presence of potassium ion (K^+ -stimulated) and in the absence of potassium ion (basal). […] If the IC50 for a test compound could not be determined for the concentration range tested, percent inhibition of (H^+ +K^+)-ATPase was obtained for the compound at 0.1 mM.
On to `[O-][S+](Cc1cccn2ccnc12)c1nc2ccccc2[nH]1` (centres unmarked) [Example 3, 2-[(imidazo[1,2-a]pyridin-8-ylmethyl)sulfinyl]-1H-benzimidazole 1/8 hydrate], for which the IC50 is 2.7 µM.

For the compound `Cc1cn2cccc(C[S+]([O-])c3nc4ccccc4[nH]3)c2n1` (centres unmarked) [Example 5], the IC50 was found to be 6.7 µM.

As for `COc1ccc2[nH]c([S+]([O-])Cc3cccn4ccnc34)nc2c1` (centres unmarked) [Example 7, 2-[(imidazo[1,2-a]pyridin-8-ylmethyl)sulfinyl]-5-methoxy-1H-benzimidazole], the IC50 worked out at 8.5 µM.

For the compound `CCOc1ccc2[nH]c([S+]([O-])Cc3cccn4ccnc34)nc2c1` (centres unmarked) [Example 9, 5-ethoxy-2-[(imidazo[1,2-a]pyridin-8-ylmethyl)sulfinyl]-1H-benzimidazole], the IC50 was 9.2 µM.

With `Cc1cccc2[nH]c([S+]([O-])Cc3cccn4ccnc34)nc12` (centres unmarked) [Example 11, 2-[(imidazo[1,2-a]pyridin-8-ylmethyl)sulfinyl]-4-methyl-1H-benzimidazole], the IC50 amounted to 6.2 µM.

With `Cc1ccc2[nH]c([S+]([O-])Cc3cccn4ccnc34)nc2c1` (centres unmarked) [Example 13, 2-[(imidazo[1,2-a]pyridin-8-ylmethyl)sulfinyl]-5-methyl-1H-benzimidazole], the IC50 stood at 3.1 µM.

For `Cc1cc2nc([S+]([O-])Cc3cccn4ccnc34)[nH]c2cc1C` (centres unmarked) [Example 15, 2-[(imidazo[1,2-a]pyridin-8-ylmethyl)sulfinyl]-5,6-dimethyl-1H-benzimidazole hydrate], the IC50 was 4.8 µM.

As for `COc1cc2nc([S+]([O-])Cc3cccn4ccnc34)[nH]c2cc1OC` (centres unmarked) [Example 17, 2-[(imidazo[1,2-a]pyridin-8-ylmethyl)sulfinyl]-5,6-dimethoxy-1H-benzimidazole], the IC50 came out at 69 µM.

Take `[O-][S+](Cc1cccn2ccnc12)c1nc2cc(Cl)ccc2[nH]1` (centres unmarked) [Example 19, 5-chloro-2-[(imidazo[1,2-a]pyridin-8-ylmethyl)sulfinyl]-1H-benzimidazole]: the IC50 came out at 5 µM.

For the compound `[O-][S+](Cc1cccn2ccnc12)c1nc2cc(C(F)(F)F)ccc2[nH]1` (centres unmarked) [Example 21, 2-[(imidazo[1,2-a]pyridin-8-ylmethyl)sulfinyl]-5-(trifluoromethyl)-1H-benzimidazole], the IC50 was 3.4 µM.

As for `Cc1nc2c(C[S+]([O-])c3nc4ccccc4[nH]3)cccn2c1C` (centres unmarked) [Example 23, 2-[[(2,3-dimethylimidazo[1,2-a]pyridin-8-yl)methyl]sulfinyl]-1H-benzimidazole], the IC50 is 6.2 µM.

Turning to `Cc1cnc2c(C[S+]([O-])c3nc4ccccc4[nH]3)cccn12` (centres unmarked) [Example 25, 2-[[(3-methylimidazo[1,2-a]pyridin-8-yl)methyl]sulfinyl]-1H-benzimidazole hemihydrate1/2CH2 Cl2], the IC50 was 4 µM.

For the compound `[O-][S+](Cc1cccn2cc(-c3ccccc3)nc12)c1nc2ccccc2[nH]1` (centres unmarked) [Example 28, 2-[[(2-phenylimidazo[1,2-a]pyridin-8-yl)methyl]sulfinyl]-1H-benzimidazole 1/4 hydrate], the IC50 is > 100 µM.

For `[O-][S+](Cc1cccn2c(-c3ccccc3)cnc12)c1nc2ccccc2[nH]1` (centres unmarked) [Example 30, 2-[[(3-phenylimidazo[1,2-a]pyridin-8-yl)methyl]sulfinyl]-1H-benzimidazole hemihydrate], the IC50 was found to be 9.1 µM.

Consider `O=[N+]([O-])c1ccc(-c2cnc3c(C[S+]([O-])c4nc5ccccc5[nH]4)cccn23)cc1` (centres unmarked) [Example 33, 2-[[[3-(4-nitrophenyl)imidazo[1,2-a]pyridin-8-yl]methyl]sulfinyl]-1H-benzimidazole 1/4 hydrate], for which the IC50 came out at 17.5 µM.

On to `[O-][S+](Cc1cccn2c(-c3cccc(C(F)(F)F)c3)cnc12)c1nc2ccccc2[nH]1` (centres unmarked) [Example 36, 2-[[[3-[3-(trifluoromethyl)phenyl]imidazo[1,2-a]pyridin-8-yl]methyl]sulfinyl]-1H-benzimidazole], for which the IC50 came out at 6.9 µM.

Turning to `Cc1ccc2[nH]c([S+]([O-])Cc3cccn4c(-c5cccc(C(F)(F)F)c5)cnc34)nc2c1` (centres unmarked) [Example 39, 5-methyl-2-[[[3-[3-(trifluoromethyl)phenyl]imidazo[1,2-a]pyridin-8-yl]methyl]sulfinyl]-1H-benzimidazole], the IC50 amounted to 7.2 µM.

Turning to `[O-][S+](Cc1cccn2c(-c3cccc(C(F)(F)F)c3)cnc12)c1nc2cc(Cl)ccc2[nH]1` (centres unmarked) [Example 42, 5-chloro-2-[[[3-[3-(trifluoromethyl)phenyl]imidazo[1,2-a]pyridin-8-yl]methyl]sulfinyl]-1H-benzimidazole], the IC50 was determined as 15.2 µM.

As for `[O-][S+](Cc1cccn2c(-c3ccc(C(F)(F)F)cc3)cnc12)c1nc2ccccc2[nH]1` (centres unmarked) [Example 45, 2-[[[3-[4-(trifluoromethyl)phenyl]imidazo[1,2-a]pyridin-8-yl]methyl]sulfinyl]-1H-benzimidazole], the IC50 was 7.4 µM.

Turning to `[O-][S+](Cc1cccn2c(-c3ccc(C(F)(F)F)cc3)cnc12)c1nc2cc(Cl)ccc2[nH]1` (centres unmarked) [Example 47, 5-chloro-2-[[[3-[4-(trifluoromethyl)phenyl]imidazo[1,2-a]pyridin-8-yl]methyl]sulfinyl]-1H-benzimidazole], the IC50 is 13 µM.

For `COC(=O)c1ccc(-c2cnc3c(C[S+]([O-])c4nc5ccccc5[nH]4)cccn23)cc1` (centres unmarked) [Example 49, methyl 4-[8-[(1H-benzimidazol-2-ylsulfinyl)methyl]imidazo[1,2-a]pyridin-3-yl]benzoate hydrate], the IC50 worked out at 7.8 µM.

As to `[O-][S+](Cc1cccn2c(-c3ccc(Cl)cc3)cnc12)c1nc2ccccc2[nH]1` (centres unmarked) [Example 52, 2-[[[3-(4-chlorophenyl)imidazo[1,2-a]pyridin-8-yl]methyl]sulfinyl]-1H-benzimidazole], the IC50 came to 5.5 µM.

Take `Cc1ccc(-c2cnc3c(C[S+]([O-])c4nc5ccccc5[nH]4)cccn23)cc1` (centres unmarked) [Example 54, 2-[[[3-(4-methylphenyl)imidazo[1,2-a]pyridin-8-yl]methyl]sulfinyl]-1H-benzimidazole]: the IC50 came to 3.2 µM.

Turning to `[O-][S+](Cc1cccc2nccn12)c1nc2ccccc2[nH]1` (centres unmarked) [Example 56, 2-[(imidazo[1,2-a]pyridin-5-ylmethyl)sulfinyl]-1H-benzimidazole], the IC50 was > 100 µM.

Another test deals with gastric acid secretion in gastric fistula beagle dogs. Briefly: Inhibition of Gastric Acid Secretion in Gastric Fistula Beagle Dogs. The format is in vivo. Particulars: 3 mg/kg dose; i.d. (intraduodenal); histamine-stimulated secretion, four-hour period.
As for `[O-][S+](Cc1cccn2ccnc12)c1nc2ccccc2[nH]1` (centres unmarked) [Example 3, 2-[(imidazo[1,2-a]pyridin-8-ylmethyl)sulfinyl]-1H-benzimidazole 1/8 hydrate], the “Gastric-Fistula Beagle % Inhibition” value was 57%.

Take `Cc1cn2cccc(C[S+]([O-])c3nc4ccccc4[nH]3)c2n1` (centres unmarked) [Example 5]: the “Gastric-Fistula Beagle % Inhibition” value came to 16%.

Usually IC50 stands for the concentration that gives 50% inhibition.
